The source of these data is patent US20230157952A1, “METHOD FOR IMPROVING THE STABILITY OF A PHARMACEUTICAL COMPOSITION COMPRISING A HIGH PENETRATION DRUG, AND THE PHARMACEUTICAL COMPOSITION OBTAINED THEREFROM” (Techfields Inc., priority 2020, published 2023).

What all share (assay type): physicochemical
Data set [1] is described as follows: Effect of pH value on the stability of the solution (purity). The settings on record: 25° C.
Data set [2] is described as follows: Stability of the pure HPDs (dry solid) at 25° C./RH 60%. The settings on record: for Purity: pure HPD, 25° C./RH 60%.
Data set [3] in a line: Effect of temperature (and pH) on the stability of the solution (purity). The settings on record: for Stability of the solution at a temperature higher than 40° C. and a pH lower than 3 or greater than 6: 7% solution in water.
Setting [4] is: day 28, pH 1.0, 7% solution in water.
Where [5] appears, read: day 28, pH 2.0, 7% solution in water.
Where [6] appears, read: day 28, pH 3.0, 7% solution in water.
Setting [7] is: day 28, pH 3.7, 7% solution in water.
Setting [8] is: day 28, pH 5.0, 7% solution in water.
[9] abbreviates: day 28, pH 6.0, 7% solution in water.
Setting [10] is: day 28, pH 7.0, 7% solution in water.
Setting [11] is: day 28, pH 8.0, 7% solution in water.
[12] abbreviates: day 28, pH 1.0, 7% in 25% ethanol.
[13] abbreviates: day 28, pH 2.0, 7% in 25% ethanol.
Where [14] appears, read: day 28, pH 3.0, 7% in 25% ethanol.
[15] abbreviates: day 28, pH 3.7, 7% in 25% ethanol.
Setting [16] is: day 28, pH 4.0, 7% in 25% ethanol.
Where [17] appears, read: day 28, pH 4.3, 7% in 25% ethanol.
[18] abbreviates: day 28, pH 4.6, 7% in 25% ethanol.
The mark [19] stands for this setting: day 28, pH 5.0, 7% in 25% ethanol.
Where [20] appears, read: day 28, pH 6.0, 7% in 25% ethanol.
The mark [21] stands for this setting: day 28, pH 7.0, 7% in 25% ethanol.
[22] abbreviates: day 28, pH 8.0, 7% in 25% ethanol.
The mark [23] stands for this setting: 5% solution with 1 equivalent sodium acetate in 25% ethanol, pH 4.49-4.51.
Setting [24] is: pure HPD at 25° C./RH 60%, in % (unit assumed).

Non-standard residues stand in square brackets, D forms with d. *: point of attachment. Arg(NO2) = N=C(NCCC[C@H](N)C(=O)O)N[N+](=O)[O-]; OiPr = CC(C)O*

Regarding `Br.CCN(CC)CCOC(=O)C(C)c1ccc2cc(OC)ccc2c1` (racemic) [C-2, 2-(diethylamino)ethyl (R,S)-2-(6-methoxy-2-naphthyl) propionate•HBr salt], the “Purity(%) from day 0-28” value in data set [1] (setting [4]) is 69.7 ± 0.3%; in data set [1] (setting [5]) it was 80.1 ± 0.3%; in data set [1] (setting [6]) it was 90.7 ± 0.3%; in data set [1] (setting [7]), 97.1 ± 0.3%; in data set [1] (setting [8]), 96.5 ± 0.3%; in data set [1] (setting [9]) it was 89.0 ± 0.4%. For the same compound, the “Purity(%) from day 0-28” value worked out at 65.5 ± 0.3% in data set [1] (setting [10]) and 45.5 ± 0.5% in data set [1] (setting [11]). The Purity in data set [2] (3 month, listed as A-1-4) is reported as 98.9 ± 0.1; in data set [2] (6 month, listed as A-1-4), 98.6 ± 0.4; in data set [2] (9 month), 98.1 ± 0.1; in data set [2] (18 month) it was 97.9 ± 0.3; in data set [2] (24 month), 97.7 ± 0.4; in data set [2] (24 month, listed as A-1-4) it was 98.0 ± 0.4. This compound also displayed a Purity in data set [2] (Day 0, listed as A-1-4) of 98.6 ± 0.3.
Turning to `CCN(CC)CCOC(=O)[C@H](C)c1ccc2cc(OC)ccc2c1.O=C(O)CC(O)(CC(=O)O)C(=O)O` (racemic) [C-3, 2-(diethylamino)ethyl (R,S)-2-(6-methoxy-2-naphthyl) propionate•citric acid salt], the “Purity(%) from day 0-28” value in data set [1] (setting [4]) is given as 68.2 ± 0.4%; in data set [1] (setting [5]), 80.1 ± 0.3%; in data set [1] (setting [6]) it was 90.3 ± 0.3%; in data set [1] (setting [7]) it was 96.8 ± 0.2%; in data set [1] (day 28, pH 4.0, 7% solution in water), 97.1 ± 0.2%; in data set [1] (day 28, pH 4.3, 7% solution in water), 97.1 ± 0.3%. The “Purity(%) from day 0-28” value in data set [1] (day 28, pH 4.6, 7% solution in water) amounted to 97.0 ± 0.3%; in data set [1] (setting [8]), 96.0 ± 0.3%; in data set [1] (setting [9]), 88.4 ± 0.3%; in data set [1] (setting [10]), 55.8 ± 0.4%; in data set [1] (setting [11]) it was 35.8 ± 0.5%. The results for the Purity in data set [2] (12 month), in data set [2] (18 month) and in data set [2] (24 month) were 98.1 ± 0.3, 97.9 ± 0.4 and 97.8 ± 0.3, respectively.
As to `CC(C)Cc1ccc([C@@H](C)C(=O)OCCN(C)C)cc1.Cl` (racemic) [C-5, 2-(dimethylamino)ethyl (R,S)-2-(p-isobutylphenyl)propionate•HCl salt], the “Purity(%) from day 0-28” value was found to be 65.3 ± 0.3% in data set [1] (setting [12]); 77.4 ± 0.3% in data set [1] (setting [13]); 88.4 ± 0.2% in data set [1] (setting [14]); 95.7 ± 0.3% in data set [1] (setting [15]); 96.6 ± 0.4% in data set [1] (setting [16]); 96.8 ± 0.3% in data set [1] (setting [17]). For the same compound, the “Purity(%) from day 0-28” value in data set [1] (setting [18]) is on record as 96.8 ± 0.2%; in data set [1] (setting [19]), 93.1 ± 0.4%; in data set [1] (setting [20]), 85.3 ± 0.2%; in data set [1] (setting [21]) it was 47.1 ± 0.3%; in data set [1] (setting [22]) it was 34.9 ± 0.5%. For the same compound, the Purity was 98.1 ± 0.2 in data set [2] (3 month); 98.1 ± 0.3 in data set [2] (6 month); 98.0 ± 0.4 in data set [2] (12 month); 97.9 ± 0.1 in data set [2] (18 month); 97.7 ± 0.4 in data set [2] (24 month).
Take `CCCCN(CCCC)CCOC(=O)C(C)c1ccc(CC(C)C)cc1.Cl` (racemic) [C-6, 2-(dibutylamino)ethyl (R,S)-2-(p-isobutylphenyl)propionate•HCl salt]: the “Purity(%) from day 0-28” value in data set [1] (setting [12]) was 68.4 ± 0.3%; in data set [1] (setting [13]), 79.2 ± 0.4%; in data set [1] (setting [14]), 91.2 ± 0.3%; in data set [1] (setting [15]), 96.9 ± 0.2%; in data set [1] (setting [16]), 97.3 ± 0.2%; in data set [1] (setting [17]), 97.3 ± 0.3%. The “Purity(%) from day 0-28” value was 97.1 ± 0.3% in data set [1] (setting [18]); 94.5 ± 0.3% in data set [1] (setting [19]); 89.2 ± 0.4% in data set [1] (setting [20]); 51.5 ± 0.3% in data set [1] (setting [21]); 35.1 ± 0.3% in data set [1] (setting [22]). Also, the Purity in data set [2] (24 month) amounted to 98.1 ± 0.2.
For the compound `CCN(CC)CCOC(=O)c1ccccc1OC(C)=O.O=C(O)c1ccccc1` [A-2, 2-(diethylamino)ethyl acetylsalicylate•benzoic acid salt], the “Purity(%) from day 0-14” value in data set [1] (day 14, pH 1.0, 7% in water) came out at 60.5 ± 0.3%; in data set [1] (day 14, pH 2.0, 7% in water), 79.7 ± 0.4%; in data set [1] (day 14, pH 3.0, 7% in water), 91.0 ± 0.2%; in data set [1] (day 14, pH 3.7, 7% in water) it was 94.1 ± 0.2%; in data set [1] (day 14, pH 4.0, 7% in water), 95.0 ± 0.3%; in data set [1] (day 14, pH 4.3, 7% in water), 95.0 ± 0.4%. The “Purity(%) from day 0-14” value in data set [1] (day 14, pH 4.6, 7% in water) worked out at 94.4 ± 0.3%; in data set [1] (day 14, pH 5.0, 7% in water) it was 87.3 ± 0.2%; in data set [1] (day 14, pH 6.0, 7% in water), 78.3 ± 0.3%; in data set [1] (day 14, pH 7.0, 7% in water), 56.0 ± 0.4%; in data set [1] (day 14, pH 8.0, 7% in water), 17.7 ± 0.4%. Also, the Purity worked out at 97.9 ± 0.1 in data set [2] (12 month), 97.6 ± 0.2 in data set [2] (18 month) and 97.1 ± 0.2 in data set [2] (24 month).
Consider `CC(O)C(=O)O.CCN(CC)CCOC(=O)c1ccccc1OC(C)=O` [A-3, 2-(diethylamino)ethyl acetylsalicylate•lactic acid salt], for which the “Purity(%) from day 0-14” value in data set [1] (day 14, pH 1.0, 7% in water) was determined as 57.9 ± 0.4%; in data set [1] (day 14, pH 2.0, 7% in water), 77.0 ± 0.4%; in data set [1] (day 14, pH 3.0, 7% in water) it was 88.7 ± 0.2%; in data set [1] (day 14, pH 3.7, 7% in water) it was 93.1 ± 0.3%; in data set [1] (day 14, pH 4.0, 7% in water) it was 94.1 ± 0.4%; in data set [1] (day 14, pH 4.3, 7% in water) it was 94.4 ± 0.2%. Also, the “Purity(%) from day 0-14” value amounted to 94.1 ± 0.2% in data set [1] (day 14, pH 4.6, 7% in water); 85.6 ± 0.4% in data set [1] (day 14, pH 5.0, 7% in water); 78.3 ± 0.3% in data set [1] (day 14, pH 6.0, 7% in water); 55.1 ± 0.3% in data set [1] (day 14, pH 7.0, 7% in water); 15.0 ± 0.4% in data set [1] (day 14, pH 8.0, 7% in water). The Purity was found to be 97.9 ± 0.2 in data set [2] (12 month), 97.3 ± 0.1 in data set [2] (18 month) and 96.8 ± 0.2 in data set [2] (24 month).
Take `CCN(CC)CCOC(=O)C(C)c1ccc(-c2ccccc2)c(F)c1.Cl` (stereo not drawn) [B-1-1, 2-(diethylamino)ethyl 2-(2-fluoro-4-biphenyl)propionate•HCl salt]: in data set [3], the “Stability of the solution at a temperature higher than 40° C. and a pH lower than 3 or greater than 6” value is reported as “not stable”. Besides, the Purity worked out at 98.1 ± 0.1 in data set [2] (6 month), 98.1 ± 0.1 in data set [2] (18 month) and 98.0 ± 0.1 in data set [2] (24 month).
For the compound `CCN(CC)CCOC(=O)[C@H](C)c1ccc(CC(C)C)cc1.Cl` [C-1-3, 2-(diethylamino)ethyl (R)-2-(p-isobutylphenyl)propionate•HCl salt], the “Stability of the solution at a temperature higher than 40° C. and a pH lower than 3 or greater than 6” value in data set [3] is “not stable”. Moreover, the Purity is listed as 98.1 ± 0.3 in data set [2] (6 month); 98.0 ± 0.1 in data set [2] (9 month); 98.0 ± 0.3 in data set [2] (12 month); 97.9 ± 0.3 in data set [2] (18 month); 97.8 ± 0.2 in data set [2] (24 month).
Turning to “H-Ala-Pro-Gly-Pro-Arg(NO2)—OCH(CH3)2•HCl (H-APGP[Arg(NO2)]-OiPr; also: HCl salt) [T-2]”, in data set [3] (setting [23]), the “Purity (%) at day 30 (60° C.)” value is 32.8 ± 0.2%, the “Purity (%) at day 90 (60° C.)” value was 0%, the “Purity (%) at day 180 (60° C.)” value turned out to be 0% and the “Purity (%) at day 360 (60° C.)” value was found to be 0%. Moreover, in data set [3] (setting [23]), the “Purity(%) at day 0” value stood at 98.9 ± 0.2%, the “Purity(%) at day 30 (5° C.)” value is 98.8 ± 0.2%, the “Purity(%) at day 30 (25° C.)” value was 97.8 ± 0.3% and the “Purity(%) at day 30 (40° C.)” value came to 71.3 ± 0.2%. In data set [3] (setting [23]), the “Purity(%) at day 90 (5° C.)” value came out at 98.5 ± 0.3%, the “Purity(%) at day 90 (25° C.)” value is reported as 97.0 ± 0.2%, the “Purity(%) at day 90 (40° C.)” value is listed as 33.6 ± 0.2% and the “Purity(%) at day 180 (5° C.)” value was determined as 97.8 ± 0.2%. In data set [3] (setting [23]), the “Purity(%) at day 180 (25° C.)” value is reported as 95.2 ± 0.3%, the “Purity(%) at day 180 (40° C.)” value was found to be 13.6 ± 0.2%, the “Purity(%) at day 360 (5° C.)” value is 97.4 ± 0.3% and the “Purity(%) at day 360 (25° C.)” value was found to be 92.3 ± 0.3%. Besides, in data set [3] (setting [23]), the “Purity(%) at day 360 (40° C.)” value is 0%. In data set [2] (setting [24]), the “Purity at 3 month” value is 98.9 ± 0.3, the “Purity at 6 month” value is listed as 98.6 ± 0.2, the “Purity at 9 month” value came to 98.6 ± 0.3 and the “Purity at 12 month” value is reported as 98.5 ± 0.2. In data set [2] (setting [24]), the “Purity at 18 month” value was 98.5 ± 0.2, the “Purity at 24 month” value is on record as 98.4 ± 0.2 and the “Purity at Day 0” value was determined as 98.9 ± 0.1. The “Stability of the pure powder” value in data set [2] (room temperature (25° C./RH 60%)) is reported as “very stable”.
